Source: patent US7250394B2, “Treatment of glial tumors with glutamate antagonists” (priority 2001, dated 2007)

Key:
[1] = test system: cultured cortical neurons; assay: Calcium measurement (fluo-3) in cortical neurons after conditioned medium from C6Glu+ cells; type: cell-based, rat; settings: 10 μM
Method: (§1) Ten-day-old cortical neurons were loaded with the calcium indicator, fluo-3 AM (5 μM, 1 h), and the fluorescence signal was detected by confocal microscopy (MRC1000, BioRad, Richmond, Calif.) as described (Lin et al., “Ga-Junction-Mediated Propagation and Amplification of Cell Injury,” Nature Neurosci., 1:494–500 (1998); Zhang et al., “Tamoxifen-Induced Enhancement of Calcium Signaling in Glioma and MCF-7 Breast Cancer Cells,” Cancer Res., 60:5395–5400 (2000), which are hereby incorporated in their entirety). 100 μl conditioned medium from the C6 clones was added to the culture (initial media volume was 300 μl). Proliferation of the C6 subclones was determined by cell counting or by the Alamar blue assay (Biosource, Camarillo, Calif.) and cellular invasiveness evaluated using Matrigel-coated transwell inserts as described (Zhang et al., “Direct Gap Junction Communication Between Malignant Glioma Cells and Astrocytes,” Cancer Res., 59:1994–2003 (1999), which is hereby incorporated in its entirety).
After transfer of conditioned medium from C6Glu^+ cells to cultured cortical neurons that had been first loaded with the calcium indicator fluo-3, there was a rapid increase in the relative emission of fluo-3, indicating increased cytosolic calcium levels (FIG. 1B). […]

cortical neurons = assay: Coculture of cortical neurons with C6Glu+ glioma aggregates, neuronal viability; type: cell-based, rat; settings: pretreatment; 24 h coculture (10 μM per FIG. 1C)
Method: Glioma cell aggregates were produced by plating 100,000 C6Glu^+ or C6Glu^−cells in plates with non-adhesive substrate (ultra low cluster 3473; Costar, Cambridge, Mass.). Twenty-four hours later, the glioma aggregates were loaded with calcein AM (green, 2 μM, excitation 488 nm) and transferred to neuronal cultures. Cortical neuronal cultures were preloaded with the cell tracker Sytox 62 (white, 0.1 μM, excitation 647 nm).
To study the direct cellular interactions, the glioma clones were cocultured with cortical neurons (Id.). Twenty-four hours after adding aggregates of C6Glu^− cells to established neuronal cultures, 86±2% of the neurons remained viable (FIGS. 1C–D). In comparison, only 14±1% of neurons survived in sister cultures after addition of C6Glu^+ cell aggregates (FIGS. 1C–D).

C6Glu^+ cell implants = assay: C6Glu+ glioma implantation in striata of Wistar rats, tumor size 10 days after implantation; type: in vivo, rat
Method: Rats (male Wistar, 250–270 g) anesthetized with pentobarbital (50 mg/kg) were placed in a stereotactic frame and 1×10^4 C6 cells were injected at a depth of 6 mm in the right striata with a Hamilton syringe. Injection coordinates with regard to bregma were 0.5 mm posterior and 3.0 mm lateral. Fischer rats (170–200 g) were injected with 1×10^4 RG2 cells. In some experiments, the glioma cells were prelabeled with the cell tracker, CMFDA (2 μM, Molecular Probes, Eugene, Oreg.) (Lin et al., “Ga-Junction-Mediated Propagation and Amplification of Cell Injury,” Nature Neurosci., 1:494–500 (1998), which is hereby incorporated in its entirety). Ten days after implantation, the anesthetized rats were perfused with 4% paraformaldehyde in phosphate buffer. After post-fixation for 24 hours, the brains were sectioned into 50–500-μm slices by a vibratome (Kang et al., “AstrocyteMediated Potentiation of Inhibitory Synaptic Transmission,” Nature Neurosci., 1:682–692 (1998), which is hereby incorporated in its entirety). The slices were imaged using a Sony digital camera (DSC-S50) and tumor volume calculated using NIH Image software.
Based upon the above observations, it was investigated whether excitotoxic neuronal death accelerates tumor expansion. […]

C6 cells [2] = assay: Proliferation of C6 glioma cells in culture; type: cell-based, rat
Method: as §1

[3] = test system: TUNEL^+ neurons surrounding C6Glu^+ cell tumors; assay: TUNEL staining of degenerating neurons surrounding C6Glu+ tumors; type: in vivo, rat; settings: five-day-old tumors; P<0.001 one-way ANOVA
Description: Polyclonal antibodies against glutamate transporters were supplied by and used as described by Rothstein et al., “Localization of Neuronal and Glial Glutamate Transporters,” Neuron, 13:713–725 (1994), which is hereby incorporated in its entirety. Neuronal death was visualized with the TUNEL technique (Oncor, Gaithersburg), and counterstained with hematoxilin and eosin (H&E) (Lin et al., “Ga-Junction-Mediated Propagation and Amplification of Cell Injury,” Nature Neurosci., 1, 494–500 (1998), which is hereby incorporated in its entirety). […] TUNEL^+ neurons within a distance of 200 μm from the tumor border were counted by a blinded observer. […]
To test the possibility that elevation of extracellular glutamate triggers excitotoxic neuronal death in normal brain tissue invaded by C6Glu^+ tumor cells, TUNEL (terminal deoxynucleotidyl-transferase-mediated dUTP-blotin nick end-labeling) staining was used to identify degenerating neurons (Lin et al., “Ga-Junction-Mediated Propagation and Amplification of Cell Injury,” Nature Neurosci., 1, 494–500 (1998), which is hereby incorporated in its entirety). Five-day-old tumors were evaluated to minimize indirect injury resulting from the very large tumors in animals with C6Glu^+ cell implants. […]

C6 cells [4] = assay: Glutamate release from C6 subclones (bioluminescence assay); type: cell-based, rat
Method: Confluent cultures were washed twice and incubated in fresh culture medium. Samples of the supernatant were collected at 1, 3 and 6 hours. […] Glutamate release from freshly prepared brain slices was imaged by preparing 300-μm slices by vibratome 5 days after tumor implantation. The sections were prepared in artificial CSF as described (Kang et al., “Astrocyte-Mediated Potentiation of Inhibitory Synaptic Transmission,”Nature Neurosci., 1:683–692 (1998), which is hereby incorporated in its entirety). After 15 to 30 min. incubation in CSF, the slices were transferred to microscope stage and immersed in the bioluminescence mixture (1 ml) at room temperature. To modify the bioluminescence mixture to be tolerated by live tissue, glycerol was removed using Hank's buffered salt solution as the base. The luminescence was imaged by an intensified CCD camera (Hamamatsu, C2400) attached to a BX-50 microscope with a 50 mm camera lens (Olympus). The relative light production over the tumor versus normal brain tissue was quantified. Light emission higher than a background threshold was superimposed upon a bright-field image of the same section obtained immediately after luminescence recordings. The brain slices were fixed overnight in 4% paraformaldehyde and stained with cresylviolet.

C6 glioma cells = assay: [3H]glutamate uptake in C6 subclones; type: cell-based, rat; settings: 5 min
Method: Glutamate uptake was analyzed by mixing 0.4 μCi/ml L-[^3H]glutamate (specific activity 0.03 Ci/mmol) with 150 μM glutamate in a buffer containing […] NaCl, 1.5 mM K2HPO4, 2 MM MgCl2, 2 mM CaCl2, 10 mM HEPES and 10 mM glucose with pH 7.3 (ref 6). NaCl was replaced by choline chloride for sodium-free conditions. Cells were washed twice, then incubated in the uptake solution with various blockers for 5 min., followed by 3 washes with ice-cold buffer, and then dissolved in 0.3 N NaOH. The activity of [^3H]glutamate was detected with liquid scintillation counter (1209 Rackbeta, LKB Wallac, San Francisco, Calif.). Protein concentration was determined by using the DC protein assay kit from BioRad.

RG2Glu^+ cell implants = assay: RG2Glu+ glioma implantation in Fischer rats, tumor volume; type: in vivo, rat; settings: 25 mg/kg twice daily i.p., 10 d
Method: Rats (male Wistar, 250–270 g) anesthetized with pentobarbital (50 mg/kg) were placed in a stereotactic frame and 1×10^4 C6 cells were injected at a depth of 6 mm in the right striata with a Hamilton syringe. Injection coordinates with regard to bregma were 0.5 mm posterior and 3.0 mm lateral. Fischer rats (170–200 g) were injected with 1×10^4 RG2 cells. In some experiments, the glioma cells were prelabeled with the cell tracker, CMFDA (2 μM, Molecular Probes, Eugene, Oreg.) (Lin et al., “Ga-Junction-Mediated Propagation and Amplification of Cell Injury,” Nature Neurosci., 1:494–500 (1998), which is hereby incorporated in its entirety). Ten days after implantation, the anesthetized rats were perfused with 4% paraformaldehyde in phosphate buffer. After post-fixation for 24 hours, the brains were sectioned into 50–500-μm slices by a vibratome (Kang et al., “AstrocyteMediated Potentiation of Inhibitory Synaptic Transmission,” Nature Neurosci., 1:682–692 (1998), which is hereby incorporated in its entirety). The slices were imaged using a Sony digital camera (DSC-S50) and tumor volume calculated using NIH Image software. […]

RG2 glioma cells = assay: Proliferation of RG2 glioma cells in culture; type: cell-based, rat
[5] = 25 mg/kg i.p.; microdialysis; cited from earlier work
[6] = patients with Parkinson's Disease, dementia, and spasticity; cited from earlier work

C[C@]12N[C@H](Cc3ccccc31)c1ccccc12 [MK801, dizocilpine]
increase in fluo-3 emission (cytosolic calcium) in cortical neurons [1]: blocked
neuronal loss in coculture with C6Glu+ cell aggregates (cortical neurons): attenuated the neuronal loss
tumor size (C6Glu^+ cell implants; 1 mg/kg twice daily i.p., 10 days after injection of C6Glu+ cells, vehicle 106±19 mm^3, P<0.001): 54.9±11 mm^3
proliferation rate of C6 cells in vitro (C6 cells [2]; 10 or 100 μM per FIG. 4B): did not reduce
number of TUNEL+ neurons surrounding C6Glu+ cell tumors [3]: reduced

N[C@@H](CSSC[C@H](N)C(=O)O)C(=O)O [cystine]
glutamate release from C6 cells (C6 cells [4]; addition of extracellular cystine, any of the three clones): no effect

N[C@H](C(=O)O)c1ccc(C(=O)O)cc1 [S-4CPG, (s)-4-carboxyphenylglycine]
glutamate release from C6 cells (C6 cells [4]; 100 μM, any of the three clones): no effect

O=C(O)[C@@H]1CN[C@@H](C(=O)O)C1 (relative stereo) [trans-PDC, trans-pyrrolidine-2,4-dicarboxylate]
uptake of [3H]glutamate in C6Glu+ cells (C6 glioma cells; 200 μM): not affected
[3H]glutamate uptake in C6Glu- cells (C6 glioma cells): significantly reduced
[3H]glutamate uptake in C6WT cells (C6 glioma cells): significantly reduced
glutamate release from C6 cells (C6 cells [4]; 6-h period): not affected

CC12CC3CC(C)(C1)CC(N)(C3)C2 [memantine]
growth of C6Glu+ tumors (C6Glu^+ cell implants; 10 d after implantation, P<0.001 (FIG. 6D)): effectively restricted the growth
proliferation of cultured C6Glu+ cells (C6 cells [2]; 100 μM or higher): significant reduction
proliferation of cultured C6Glu+ cells (C6 cells [2]; low concentrations): did not reduce
tumor volume smaller than vehicle-treated rats (RG2Glu^+ cell implants): 26%
proliferation of RG2 glioma cells (RG2 glioma cells; 100 μM or higher): significant reduction
proliferation of RG2 glioma cells (RG2 glioma cells; low concentrations): did not reduce
peak concentrations in the central nervous system [5]: 1 to 2 µM
side effects on prolonged administration [6]: few side effects
